Source: patent publication US20100317671A1, “XANTHINE-BASED CYCLIC GMP-ENHANCING RHO-KINASE INHIBITOR INHIBITS PHYSIOLOGICAL ACTIVITIES OF LUNG EPITHELIAL CELL LINE” (KAOHSIUNG MEDICAL UNIVERSITY, priority 2008, published 2010)

Legend:
TGF-β = TGF-β expression, bleomycin-induced lung fibrosis (EIA); type: in vivo, mice; details: BM 60 mg/kg; drug 2.5 mg/kg oral
Protocol: The increased amount of the collagen synthesis and the macrophage generation in alveolus may facilitate the formulation of TGF-β, and the expression of TGF-β is deeming as a biomarker of the lung fibrosis. KMUP-1HCl salt (1, 2.5 and 5 mg/kg), the Simvastatin (5 mg/kg), the KMUP-1-nicotinic acid complex (2.5 mg/kg), the KMUP-1-Simvastatinic acid complex (2.5 mg/kg) and KMUP-1-γ-polyglutamic acid complex (2.5 mg/kg) are orally administered to the mice for inhibiting the lung fibrosis induced by TGF-β expression in tracheal lavage solution that resulted from 60 mg/kg BM inhalation (Table 6). The state of the TGF-β expression in the lavage is measured by the enzyme immunoassay (EIA).

[1] = Monocrotaline (MCT)-induced pulmonary arterial hypertension, PABP; type: in vivo, male Wistar rats; details: MCT-treated rats
Protocol: The rats administered MCT (60 mg/kg) are caused pulmonary artery hypertension on day 21 after the intraperitoneal injection. The KMUP-1HCl salt (2.5 mg/kg), Simvastatin (2.5 mg/kg), KMUP-1-nicotinic acid complex (2.5 mg/kg), KMUP-1-citric acid complex (2.5 mg/kg), KMUP-1-Simvastatinic Acid complex (2.5 mg/kg) and KMUP-1-γ-polyglutamic acid complex (2.5 mg/kg) orally administered, or the KMUP-1-PGI2 complex (0.1 mM) inhaled every day may inhibit the pulmonary arterial blood pressure (PABP) in MCT-treated male Wistar rats.

[2] = system: total cells, lymphocytes and eosinophils in BALF; assay: Cellular components in BALF, OVA-challenged mice; type: in vivo; details: 24 hrs after last OVA challenge; nebulization
Source text: Inflammation and remodeling of the bronchioles is associated with infiltration of blood-born lymphocytes, eosinophils and neutrophils, migrating into bronchial lumen. During the course of allergic disease, structural changes occur in the airways, referred to as remodeling. However, treatment with KMUP-1 prevents the migration of blood born cells into bronchiole.

PKG = assay: Western blotting of lung tissue, OVA-sensitized and -challenged mice; type: in vivo; details: nebulization, 28-day experiment
eNOS [3] = assay: Short-term nebulization without OVA sensitization, lung tissue; type: in vivo, mice; details: 1.0~2.5 mM, 30 mins nebulization, no OVA
Protocol: (§1) Short-term KMUP-1 (5 mM, 30 min) nebulization and pretreatment with L-NAME (12 mM, […]) are accomplished using a previously described method. Aerosols were generated by ultrasonic nebulizer from day 21 to 27. Mice were sacrificed on day 28. Three different experiments were performed on cohorts of 7-14 mice per experimental condition.
(§2) Please refer to FIGS. 22(B) and 23(B), the changes of eNOS and MMP-9 expression by KMUP-1 (2.5 mM, 30 mins) are reversed by L-NAME-pretreatment (12 mM, 30 mins).

MMP-9 [4] = assay: as above; type: in vivo, mice; details: 1.0~2.5 mM, 30 mins nebulization, no OVA
Protocol: as §1, §2

eNOS [5] = assay: Immunostaining of lung sections, OVA mice; type: in vivo
Source text: OVA decreases vascular eNOS-immunostaining in lung sections, but KMUP-1 prevents this decrease quantitatively.

[6] = system: inflammatory cells, vascular and bronchial wall; assay: Histological analyses of lung, OVA-exposed mice; type: in vivo
Source text: Histological analyses show the typical pathologic features of asthma in the OVA-exposed mice. Numerous inflammatory cells including eosinophils are infiltrated around the peri-vascular and peri-bronchial region, compared to control mice. […] After OVA challenge, marked increases in PA wall thickness % are found, compared to controls P<0.01).
OVA-sensitization increases the vascular and bronchial wall thickness, however, treatment with long-term KMUP-1 nebulization prevents these changes. […] MMP-9-immunostaining in peri-bronchial region and the reduced MMP-9-positive cells in bronchiole co-indicate the reduction of migration of infiltrated inflammatory cells.

NOx = NOx levels in BALF of OVA-sensitized and -challenged mice (Griess reagent); type: in vivo; details: 24 hrs after last OVA challenge; basal 65.4, OVA 162.8 μM
MMP-9 [7] = assay: Immunostaining of lung sections, OVA mice; type: in vivo; details: OVA-sensitized and -challenged mice
sGCα1 = assay: Western blotting of lung tissue, OVA-sensitized and -challenged mice; type: in vivo; details: nebulization, 28-day experiment
MMP-9 [8] = assay: OVA-induced MMP-9 expression in lung tissue, asthma mice; type: in vivo, BALB/c mice; details: nebulization, 28-day experiment; western blotting and zymography
Protocol: The male BALB/c mice (20-23 g) are injected (i.p.) with OVA (5 mM, 30 mins), sensitized with OVA on day 1 and day 8 via i.p injection and activated by 2 mg aluminum hydroxide to which 2 μg OVA is absorbed. […] The asthmatic animals are divided into 5 groups, wherein the control group is only administered with saline spray and the remaining experimental groups are firstly administered with 1% OVA spray and then administered with the sprays of the related complex salts respectively as shown in Table 4. The inhibition of the expression of OVA-induced MMP-9 in lung tissue of BALB/c mice is measured.

| SMILES | The changing amount of TGF-β in the lung tissue (TGF-β) [%] | Pulmonary arterial blood pressure (PABP), in words ([1]; 2.5 mg/kg orally every day) | PABP ([1]; 2.5 mg/kg/day p.o.) [mmHg] | Increase in eosinophils in BALF [2] | Increase in lymphocytes in BALF [2] | Increase in total cells in BALF [2] | PKG expression reduced by OVA sensitization (PKG) | eNOS expression in lung tissues (eNOS [3]) | MMP-9 expression in lung tissues (MMP-9 [4]) | Vascular eNOS-immunostaining decreased by OVA (eNOS [5]) | Inflammatory cells in the peri-vascular and peri-bronchiolar regions ([6]; OVA-exposed mice) | Vascular and bronchial wall thickness increased by OVA-sensitization ([6]; long-term nebulization) | Levels of NOx (nitrate+nitrite) in BALF (NOx) [µM] | MMP-9 positive cells (MMP-9 [7]) | sGCα1 expression reduced by OVA sensitization (sGCα1) | MMP-9 expression increased by OVA sensitization (MMP-9 [8]) |
| --- | --- | --- | --- | --- | --- | --- | --- | --- | --- | --- | --- | --- | --- | --- | --- | --- |
| CCC(C)(C)C(=O)O[C@H]1C[C@@H](C)C=C2C=C[C@H](C)[C@H](CC[C@@H](O)C[C@@H](O)CC(=O)O)[C@H]21.Cn1c(=O)c2c(ncn2CCN2CCN(c3ccccc3Cl)CC2)n(C)c1=O [KMUP-5] | 45 ± 4.5 | inhibit | 12 ± 1.3 | – | – | – | – | – | – | – | – | – | – | – | – | – |
| Cn1c(=O)c2c(ncn2CCN2CCN(c3ccccc3Cl)CC2)n(C)c1=O [KMUP-1, 7-[2-[4-(2-chlorobenzene)piperazinyl]ethyl]-1,3-dimethylxanthine] | – | – | – | significantly reduces | significantly reduces | significantly reduces | prevented | dose-dependently increased | decreased | prevents | marked reductions | prevents | 86.3 ± 17.3 | hardly detected | prevented | significantly reduced |
